Measurements from patent US20080207900A1, “TWO CYCLIC OXOMORPHORIN DERIVATIVES” (priority 2007, published 2008).

Tested on: Aβ42 production
Assay: Quantitation of Aβ peptide in neuronal cell culture derived from a rat fetal brain (Aβ ELISA)
Format: cell-based
Conditions: rat primary neuronal cell culture (cerebral cortex, 18-day embryos); medium recovered 3 days after adding the compound; Aβx-42 ELISA; test concentration not given
Text: Quantitation of Aβ Peptide in Neuronal Cell Culture Derived from a Rat Fetal Brain.
The cerebral cortex was isolated from 18-day embryos of Wister rats (Charles River Japan, Yokohama, Japan) and cultured. More specifically, under ether anesthesia, embryos were aseptically resected from pregnant rats. The brains were resected from the embryos and placed in an ice cold L-15 medium (Invitrogen Corp. Cat. #11415-064, Carlsbad, Calif., USA or SIGMA L15181 and the like). From the resected brains, the cerebral cortex was collected under a stereoscopic microscope. The collected pieces of the cerebral cortex were treated in an enzyme solution containing 0.25% trypsin (Invitrogen Corp. Cat. #15050-065, Carlsbad, Calif. USA) and 0.01% DNase (Sigma D5025, St. Louis, Mo., USA) at 37° C. for 30 minutes to disperse cells. Then, the enzyme reaction was stopped by adding inactivated horse serum. The resultant enzyme treatment solution was centrifuged at 1500 rpm for 5 minutes to remove the supernatant. A medium (5-10 ml) was added to the obtained cell aggregates. The medium used was Neurobasal medium (Invitrogen Corp. Cat. #21103-049, Carlsbad, Calif., USA) added with 2% B27 supplement (Invitrogen Corp. Cat #17504-044, Carlsbad, Calif. USA), 25 μM 2-mercaptoethanol (2-ME, WAKO Cat. #139-06861, Osaka, Japan), 0.5 mM L-glutamine (Invitrogen Corp. Cat. #25030-081, Carlsbad, Calif., USA) and Antibiotics-Antimycotics (Invitrogen Corp. Cat. #15240-062, Carlsbad, Calif., USA) (Neurobasal/B27/2-ME). However, a media without 2-ME (Neurobasal/B27) was used when an assay was carried out. The cell aggregates mixed with the medium were pipetted gently to re-disperse the cells. The resultant cell dispersion was filtered through a 40 μm nylon mesh (cell strainer, Cat. #. 35-2340, Becton Dickinson Labware, Franklin Lakes, N.J., USA) to obtain a neuronal cell suspension by removing cell aggregates. The resultant neuronal cell suspension was diluted with the medium and seeded into poly-L or D-lysine coated 96 well polystyrene culture vessels (Falcon Cat. #. 35-3075, Becton Dickinson Labware, Franklin Lakes, N.J., USA, coated with poly-L-lysine by a following method or BIOCOAT™πcell environments Poly-D-lysine cell ware 96-well plate, Cat. #. 35-6461, Becton Dickinson Labware, Franklin Lakes, N.J., USA) at 100 μL/well so that the initial cell density was 5×10^5 cells/cm^2. The poly-L-lysine coating was carried out as follows. Using 0.15 M Borate buffer (SIGMA P2636, St. Louis, Mo., USA) solution was aseptically prepared. The resultant solution was added to 96 well polystyrene culture vessels at […] and incubated at room temperature for 1 hour or longer or at 4° C. overnight or longer. Then the coated 96 well polystyrene culture vessels were washed with sterilized water 4 times or more, dried or rinsed with sterilized PBS or the medium and used for seeding the cells. After culturing the seeded cells were incubated at 37° C. in an incubator under a 5% CO2-95% air for 1 day, the whole medium was replaced with fresh Neurobasal/B27/2-ME medium, and the incubation was continued for 3 days.
At day 4 of culturing, drugs were added as follows. The whole medium was withdrawn and Neurobasal medium containing 2% B-27 but no 2-ME (Neurobasal/B27) was added to the well at 180 μL/well. A dimethylsulfoxide (hereinafter abbreviated as DMSO) solution of a test compound was diluted with Neurobasal/B27 to a 10 times concentration of the final concentration. The resultant diluted solution was added to the well at 20 μL/well and mixed well. The final DMSO concentration was to be 1% or less. Only DMSO was added to the control group.
After culturing 3 days after adding the compound, the whole medium was recovered. The medium thus obtained was used as ELISA samples. For Aβx-42 measurement, no dilution was made but for Aβx-40 measurement, samples were diluted 5 folds with the diluent attached to the ELISA kit to be subjected to the ELISA tests. […]

Row | Compound | Aβ42 production reducing activity
1 | COc1cc(/C=C2\O[C@@H](C)[C@H]3COC[C@@H](c4cc(F)c(F)c(F)c4)N3C2=O)ccc1-n1cnc(C)c1 [Example 2, (Z)-(1S,6R,9aR)-3-[3-methoxy-4-(4-methylimidazol-1-yl)benzylidene]-1-methyl-6-(3,4,5-trifluorophenyl)tetrahydro-[1,4]oxazino[3,4-c][1,4]oxazin-4-one] | 52 % of CTRL
2 | COc1cc(/C=C2\OC(C)(C)[C@H]3CC[C@@H](c4ccc(Cl)cc4)N3C2=O)ccc1-n1cnc(C)c1 [Example 8, (Z)-(6S,8aR)-6-(4-chlorophenyl)-3-[3-methoxy-4-(4-methylimidazol-1-yl)benzylidene]-1,1-dimethyltetrahydropyrrolo[2,1-c][1,4]oxazin-4-one] | 74 % of CTRL
3 | COc1cc(/C=C2\O[C@@H](C)[C@H]3CC[C@@H](c4ccc(Cl)cc4)N3C2=O)ccc1-n1cnc(C)c1 [Example 9, (Z)-(1S,6S,8aR)-6-(4-chlorophenyl)-3-[3-methoxy-4-(4-methylimidazol-1-yl)benzylidene]-1-methyltetrahydropyrrolo[2,1-c][1,4]oxazin-4-one] | 95 % of CTRL
4 | COc1cc(/C=C2\OC(C)(C)[C@H]3CC[C@@H](c4cc(F)c(F)c(F)c4)N3C2=O)ccc1-n1cnc(C)c1 [Example 11, (Z)-(6S,8aR)-3-[3-methoxy-4-(4-methylimidazol-1-yl)benzylidene]-1,1-dimethyl-6-(3,4,5-trifluorophenyl)tetrahydropyrrolo[2,1-c][1,4]oxazine-4 one] | 67 % of CTRL
5 | COc1cc(/C=C2\O[C@@H](C)[C@H]3CC[C@@H](c4cc(F)c(F)c(F)c4)N3C2=O)ccc1-n1cnc(C)c1 [Example 12, (Z)-(1S,6S,8aR)-3-[3-Methoxy-4-(4-methylimidazol-1-yl)benzylidene]-1-methyl-6-(3,4,5-trifluorophenyl)tetrahydropyrrolo[2,1-c][1,4]oxazin-4-one] | 91 % of CTRL
6 | COc1cc(/C=C2\O[C@@H](C)[C@H]3CCC[C@@H](c4cc(F)c(F)c(F)c4)N3C2=O)ccc1-n1cnc(C)c1 [Example 17, (Z)-(1S,6S,9aR)-3-[3-methoxy-4-(4-methylimidazol-1-yl)benzylidene]-1-methyl-6-(3,4,5-trifluorophenyl)hexahydropyrido[2,1-c][1,4]oxazin-4-one] | 53 % of CTRL
7 | COc1cc(/C=C2\OC(C)(C)[C@H]3COC[C@@H](c4cc(F)c(F)c(F)c4)N3C2=O)ccc1-n1cnc(C)c1 [Example 19] | 42 % of CTRL
